{
  "source": "ChEMBL document CHEMBL1145875",
  "about": "“Xylylated dimers of putrescine and polyamines: influence of the polyamine backbone on spermidine transport inhibition” (Bioorg Med Chem Lett, 2003)",
  "data": [
    {"target": "T47D", "assay": "(§1) Inhibition of spermidine transport determined in T-47D human breast cancer cells", "format": "functional, cell-based", "units": {"Ki": "µM"}, "values": [
      {"smiles": "NCCCCCN(CCCCCN)Cc1ccc(CN(CCCCCN)CCCCCN)cc1", "Ki": 2.8},
      {"smiles": "NCCCCCNCCCCCN", "Ki": 3.4},
      {"smiles": "NCCCCNCCCCN", "Ki": 2.7},
      {"smiles": "NCCCCN", "note": "[PUTRESCINE]", "Ki": "> 500"},
      {"smiles": "NCCCCN(CCCCN)Cc1ccc(CN(CCCCN)CCCCN)cc1", "Ki": 2.8},
      {"smiles": "NCCCNCCCCNCCCN", "note": "[SPERMINE]", "Ki": 2.1},
      {"smiles": "NCCC(CN)NCc1ccc(CNC(CN)CCN)cc1", "note": "(stereo not drawn)", "Ki": 9.3},
      {"smiles": "NCCCCCCNCCCCCCN", "Ki": 20.9},
      {"smiles": "NCCCNCCCCN(CCCN)Cc1ccc(CN(CCCN)CCCCNCCCN)cc1", "Ki": 1.1},
      {"smiles": "NCCC(CN)OCc1ccc(COC(CN)CCN)cc1", "note": "(stereo not drawn)", "Ki": 12.8},
      {"smiles": "NCCCCCCN(CCCCCCN)Cc1ccc(CN(CCCCCCN)CCCCCCN)cc1", "Ki": 9.4},
      {"smiles": "NCCCNCCCN", "note": "[NORSPERMIDINE]", "Ki": 9.5}
    ]},
    {"tested_on": "T47D", "assay": "as §1", "format": "functional, cell-based", "units": {"Km": "µM"}, "values": [
      {"smiles": "NCCCCNCCCN", "Km": 4.4}
    ]}
  ]
}
